Test [1] addresses T1, CB2 receptor (Rattus norvegicus, UniProt Q9QZN9).
T1 construct: 30 µg membrane proteins prepared in item a); endogenous in cells; host or cells: RBL-2H3 cells (plasma membrane preparation)
T1 sequence (Q9QZN9 1-360): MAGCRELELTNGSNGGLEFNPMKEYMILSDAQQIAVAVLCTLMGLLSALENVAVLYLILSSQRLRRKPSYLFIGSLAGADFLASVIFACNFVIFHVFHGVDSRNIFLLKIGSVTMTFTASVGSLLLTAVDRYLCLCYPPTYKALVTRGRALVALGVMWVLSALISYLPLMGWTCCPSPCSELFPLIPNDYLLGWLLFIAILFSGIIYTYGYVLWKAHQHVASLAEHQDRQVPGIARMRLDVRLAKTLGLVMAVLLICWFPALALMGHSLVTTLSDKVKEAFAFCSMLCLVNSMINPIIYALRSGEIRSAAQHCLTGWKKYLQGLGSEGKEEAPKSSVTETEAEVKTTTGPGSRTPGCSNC
Nature of the test: 3H-WIN 55,212-2 binding displacement on RBL-2H3 cell membranes.

The test system of a further test is RBL-2H3 cells. Nature of the test: 3H-serotonin release induced by ADNP/DNP.HSA immunogenic stimulation. The note with it: for effect on serotonin release (RBL cells immunogenic activation): statement in words on Table 3; for inhibition at 5 µM: RBL-2H3, read-out: 3H-serotonin net release inhibition (%), 5µM. The format is cell-based, rat.
For test [2], the system named is cerebellar granule cell culture. In words: neuroprotective effect against glutamate-induced cell death (MTT). The format is cell-based, mouse. The note with it: for EC50: glutamate 500 µM for 5 minutes, compound added for 10 minutes, 15 minutes after removing glutamate, MTT after 24 hours, means ± SEM.
Test [3] concerns the target CB2 receptor (Homo sapiens, UniProt P34972). The note with it: CB2 versus CB1 central receptor; cited from earlier work.
Test [4] concerns the target T1, CB2 receptor. Nature of the test: saturation curve of 3H-WIN 55,212-2 binding to RBL-2H3 cell membranes. The note with it: 3H-WIN 55,212-2 0.5 to 20 nM, 30 µg membrane proteins, 30°C 60 min.
[5] abbreviates: competitor 10 µM, amides in 0.1% DMSO, Anandamide and Nabilone in 0.1% ethanol.

Broadly, the inhibition is the drop in the measured response relative to a control, in per cent. Broadly, the IC50 is the midpoint of a concentration-inhibition curve.

Structures are written as SMILES. Like-named read-outs stand apart in the source and are kept apart here.

Sequence of CB2 receptor (Homo sapiens, UniProt P34972) (P34972 whole entry): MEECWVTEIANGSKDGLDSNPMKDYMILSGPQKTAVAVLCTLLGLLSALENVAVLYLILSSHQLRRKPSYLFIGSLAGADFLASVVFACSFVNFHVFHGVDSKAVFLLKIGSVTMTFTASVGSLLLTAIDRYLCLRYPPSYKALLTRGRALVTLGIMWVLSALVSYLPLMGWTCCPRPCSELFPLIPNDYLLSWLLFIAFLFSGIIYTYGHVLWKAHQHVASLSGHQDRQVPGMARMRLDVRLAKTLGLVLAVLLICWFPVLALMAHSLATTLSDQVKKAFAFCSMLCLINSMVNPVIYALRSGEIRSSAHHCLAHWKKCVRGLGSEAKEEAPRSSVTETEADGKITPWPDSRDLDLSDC

Take `CCCCC/C=C\C/C=C\C/C=C\C/C=C\CCCC(=O)NCCO` [Anandamide, arachidonylethanolamide, reference compound]: on CB2 receptor [1] (setting [5]), the “Displacement (%)” value stood at 95% and the Specific binding was 99. In addition, the inhibition at 12.5 µM with RBL-2H3 cells (Rattus norvegicus, RBL-2H3, read-out: 3H-serotonin net release inhibition (%), 12.5µM, -WIN) was 7%. Besides, the “3H-serotonin net release (%)” value in the test with RBL-2H3 cells (concentration not given, 0.1% DMSO and 0.1% ethanol) was determined as 100%. In addition, the “effect on serotonin release (RBL cells immunogenic activation)” value (“effect on serotonin release” below) with RBL-2H3 cells was “unable to affect serotonin release”. Further, the EC50 result in test [2] was “no effect (3)”. In addition, the “protective effect against cell death induced by glutamate” value in test [2] (glutamate 500 µM, anandamide up to 100 µM) is reported as “not effective”. In addition, the “affinity to the CB2 receptor, folds inferior to that of the central receptor” value on CB2 receptor [3] is 30 folds.
`CCCCCCC(C)(C)c1cc(O)c2c(c1)OC(C)(C)C1CCC(=O)CC21` (stereo not shown) [Nabilone, 3-(1,1-dimethylheptyl)-6,6a,7,8,10,10a-hexahydro-1-hydroxy-6,6-dimethyl-9H-dibenzo-[b,d]-pyran-9-one, reference compound]: the IC50 on CB2 receptor [1] (IC50 (nM), RBL-2H3 cell membranes, 1% DMSO, means ± SEM) is 2.6 ± 1.4 nM. In addition, on CB2 receptor [1] (setting [5]), the “Displacement (%)” value was found to be 100%. The “3H-serotonin net release (%)” value with RBL-2H3 cells (10µM, 0.1% DMSO and 0.1% ethanol) amounted to 0%. For the same molecule, the inhibition at 5 µM in the test on RBL-2H3 cells (Rattus norvegicus, + anandamide (12.5 µM)) was 50%; in the test on RBL-2H3 cells (Rattus norvegicus, -anandamide), 90%. For the same molecule, the EC50 in the test with RBL-2H3 cells (Rattus norvegicus, RBL-2H3, read-out: ED50 (µM), inhibition of 3H-serotonin release, +anandamide (12.5 µM)) is 5 µM; with RBL-2H3 cells (Rattus norvegicus, RBL-2H3, read-out: ED50 (µM), inhibition of 3H-serotonin release, -anandamide), 2.8 µM; with RBL-2H3 cells (Rattus norvegicus, RBL-2H3, read-out: ED50 (µm), inhibition of serotonin release, 0.1% DMSO and 0.1% ethanol) it was 2.8 µM; in test [2] (Mus musculus, read-out: EC50), 3.9 ± 1.1 µM. In addition, in the test on RBL-2H3 cells, the “effect on serotonin release” value is given as “able to inhibit, in a concentration-dependent way”.
In turn, `Cc1c(C(=O)c2cccc3ccccc23)c2cccc3c2n1[C@H](CN1CCOCC1)CO3` [WIN 55,212-2, reference compound] came in with a Bmax on CB2 receptor [4] of 100 to 250 pM. For the same molecule, the “3H-serotonin net release inhibition (%)” value in the test with RBL-2H3 cells (30µM, + anandamide (12.5 µM)) is recorded as 36%; with RBL-2H3 cells (30µM, -anandamide), 100%; in the test on RBL-2H3 cells (WIN 55,212-2 30 µm, + 12.5µM anandamide) it was 15%; in the test with RBL-2H3 cells (WIN 55,212-2 30 µm, + 12.5µM arachidonic acid), 59%; with RBL-2H3 cells (WIN 55,212-2 30 µm, + 12.5µM ethanolamide + 12.5µM arachidonic acid), 61%; in the test with RBL-2H3 cells (WIN 55,212-2 30 µm, + 12.5µM ethanolamine), 72%. Also, in the test with RBL-2H3 cells (WIN 55,212-2 30 µm, DNP.HSA alone), the “3H-serotonin net release inhibition (%)” value is listed as 69%. Moreover, the “3H-serotonin net release (%)” value with RBL-2H3 cells (50µM, 0.1% DMSO and 0.1% ethanol) was 0%. Also, the EC50 is 40 µM in the test with RBL-2H3 cells (inhibition of 3H-serotonin release, +anandamide (12.5 µM), read-out: ED50 (the source's name)); 6.4 µM in the test with RBL-2H3 cells (inhibition of 3H-serotonin release, -anandamide, read-out: ED50 (the source's name)); 6.4 µM in the test with RBL-2H3 cells (inhibition of serotonin release, 0.1% DMSO and 0.1% ethanol, read-out: ED50 (µm)). The “effect on serotonin release” value in the test with RBL-2H3 cells is reported as “able to inhibit, in a concentration-dependent way”.

The values above are taken from EP0799188B1, “AMIDES OF MONO AND DICARBOXYLIC ACIDS WITH GLYCOSAMINES, SELECTIVELY ACTIVE ON THE CANNABINOID PERIPHERAL RECEPTOR” (LIFEGROUP S.p.A., priority 1994, dated 1996).
